Experimental data: patent US10131659B2, “Iodonium analogs as inhibitors of NADPH oxidases and other flavin dehydrogenases; formulations thereof; and uses thereof” (priority 2014, dated 2018)

Tests used:
[1] = system: ROS production in HT-29 human colon cancer cells; assay: ROS production in HT-29 cells (chemiluminescence / DCF analytical cytometry); format: cell-based; details: treatment for 24 hr with 10 nM
[2] = system: HT-29 human colon cancer cells; assay: Clonogenic assay, HT-29 cells; format: cell-based; details: for IC50: Homo sapiens
Description: Several iodonium analog compounds were analyzed for inhibition of HT-29 growth using a clonogenic assay performed as described in Doroshow et al Biochem. Biophys. Res. Commun. 135: 330-335, 1986.

[3] = system: HT-29 human colon cancer cells; assay: Growth inhibition of HT-29 cells by MTT assay; format: cell-based; details: Homo sapiens, HT-29; 48 hr drug exposure; read-out: IC50, HT-29 human colon cancer cell growth
Description: The compounds were analyzed for growth inhibition of HT-29 human colon cancer cells by MTT assay: 48 hr, drug exposures over several orders of concentration. The MTT assay was performed as described in Wu et al J. Immunology 190: 1859-1872, 2013.

[4] = system: HT-29 human colon cancer cells; details: Free Rad. Biol. Med. 57: 162-165, 2013; cited from earlier work

## c1ccc2c(c1)[I+]c1ccccc1-2 [Compound 13, Diphenyleneiodonium chloride, reference compound]
[1]
  ROS production in HT-29 cells: significantly decreased
[2]
  cytotoxic or cytostatic character: cytostatic
  exposure required to inhibit growth / cell reproduction: requires prolonged exposure
[2]; HT-29, 240 h, 10 days exposure, read-out: IC50 clonogenic survival, 10 days drug exposure
  IC50: ~10 nM
[2]; HT-29, read-out: IC50 (±SE) clonogenic survival, 2 hrs drug exposure, 2 hrs exposure
  IC50: 9300 ± 3900 nM
[2]; HT-29, read-out: IC50 (±SE) clonogenic survival, 6 hrs drug exposure, 6 hrs exposure
  IC50: 799 ± 180 nM
[3]
  IC50: 300 nM
[4]
  effect on cell cycle progression: only G1 block
